As a reminder, the IC50 is the midpoint of a concentration-inhibition curve. High values mean weaker potency in that assay, low ones greater potency in that assay.

For this assay, the target named is T1, Corticotropin-releasing factor receptor 1 (Homo sapiens, UniProt P34998).
T1 sequence (P34998 whole entry): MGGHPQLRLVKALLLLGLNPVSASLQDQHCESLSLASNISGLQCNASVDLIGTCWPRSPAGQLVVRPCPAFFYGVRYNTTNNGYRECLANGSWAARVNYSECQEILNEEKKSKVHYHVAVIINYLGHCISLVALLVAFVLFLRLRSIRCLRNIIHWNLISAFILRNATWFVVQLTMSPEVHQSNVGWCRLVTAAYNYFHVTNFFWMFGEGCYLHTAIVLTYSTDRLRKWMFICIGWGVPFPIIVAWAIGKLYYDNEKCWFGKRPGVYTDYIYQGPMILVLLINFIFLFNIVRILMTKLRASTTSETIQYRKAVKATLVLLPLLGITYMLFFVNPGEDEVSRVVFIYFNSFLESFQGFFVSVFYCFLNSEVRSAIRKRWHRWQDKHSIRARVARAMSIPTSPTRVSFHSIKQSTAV
Nature of the assay: Displacement of [125I]-Tyr0-sauvagine from human CRFR1 expressed in HEK293 cell membrane homogenates after 120 mins by gamma counting method. In kind it is cell membranes. On the technique in general: Loss of bound radioactivity is the signal in a displacement assay; it reports binding, not function.
`CCN(CC)c1nc(C)nc2c1sc(=N)n2-c1c(C)cc(C)cc1C` showed an IC50 of 891 nM.
The same measure for `CCCCN(CC)c1nc(C)nc2c1sc(=N)n2-c1c(C)cc(C)cc1C`: 170 nM; for `CCN(CC)c1nc(C)nc2c1s/c(=N/N)n2-c1c(C)cc(C)cc1C`: 447 nM.

The values are drawn from ChEMBL document CHEMBL4130360, “Synthesis of 2-imino and 2-hydrazono thiazolo[4,5-d]pyrimidines as corticotropin releasing factor (CRF) antagonists” (Eur J Med Chem, 2017).
